The record followed here is ChEMBL document CHEMBL3751785, “Development and structural analysis of adenosine site binding tankyrase inhibitors” (Bioorg Med Chem Lett, 2016).

The assay addresses T1, Tankyrase 1/2 (Homo sapiens, UniProt Q9H2K2+O95271).
T1 sequence (Q9H2K2 whole entry): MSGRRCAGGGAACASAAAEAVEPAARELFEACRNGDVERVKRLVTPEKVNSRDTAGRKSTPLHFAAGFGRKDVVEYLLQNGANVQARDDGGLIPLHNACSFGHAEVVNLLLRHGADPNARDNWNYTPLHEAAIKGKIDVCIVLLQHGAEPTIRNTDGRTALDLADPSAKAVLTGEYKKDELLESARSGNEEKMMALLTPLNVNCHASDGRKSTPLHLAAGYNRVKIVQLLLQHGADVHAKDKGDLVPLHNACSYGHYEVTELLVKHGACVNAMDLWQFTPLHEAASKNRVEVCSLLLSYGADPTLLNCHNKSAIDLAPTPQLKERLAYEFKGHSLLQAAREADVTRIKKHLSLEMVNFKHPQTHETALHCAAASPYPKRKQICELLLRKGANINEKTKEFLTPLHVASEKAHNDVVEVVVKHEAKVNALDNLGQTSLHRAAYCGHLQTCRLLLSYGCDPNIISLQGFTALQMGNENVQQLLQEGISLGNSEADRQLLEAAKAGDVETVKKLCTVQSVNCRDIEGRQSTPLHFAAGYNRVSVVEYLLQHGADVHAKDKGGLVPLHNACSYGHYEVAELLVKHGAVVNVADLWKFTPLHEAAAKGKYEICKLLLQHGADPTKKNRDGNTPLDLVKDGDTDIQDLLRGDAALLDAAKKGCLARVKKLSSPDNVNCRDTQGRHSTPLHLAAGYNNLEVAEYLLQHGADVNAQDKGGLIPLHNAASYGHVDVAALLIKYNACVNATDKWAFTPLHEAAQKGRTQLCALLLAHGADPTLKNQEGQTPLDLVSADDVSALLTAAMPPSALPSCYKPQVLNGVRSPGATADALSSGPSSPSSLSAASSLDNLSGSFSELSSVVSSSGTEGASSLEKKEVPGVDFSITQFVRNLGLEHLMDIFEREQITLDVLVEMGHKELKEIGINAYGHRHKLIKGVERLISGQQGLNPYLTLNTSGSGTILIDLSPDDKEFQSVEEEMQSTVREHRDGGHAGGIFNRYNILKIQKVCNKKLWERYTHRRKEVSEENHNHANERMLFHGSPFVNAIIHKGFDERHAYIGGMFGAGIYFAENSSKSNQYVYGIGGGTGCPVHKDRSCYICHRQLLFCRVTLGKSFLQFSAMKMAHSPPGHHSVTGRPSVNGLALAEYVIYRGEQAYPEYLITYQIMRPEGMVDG
T1 sequence (O95271 whole entry): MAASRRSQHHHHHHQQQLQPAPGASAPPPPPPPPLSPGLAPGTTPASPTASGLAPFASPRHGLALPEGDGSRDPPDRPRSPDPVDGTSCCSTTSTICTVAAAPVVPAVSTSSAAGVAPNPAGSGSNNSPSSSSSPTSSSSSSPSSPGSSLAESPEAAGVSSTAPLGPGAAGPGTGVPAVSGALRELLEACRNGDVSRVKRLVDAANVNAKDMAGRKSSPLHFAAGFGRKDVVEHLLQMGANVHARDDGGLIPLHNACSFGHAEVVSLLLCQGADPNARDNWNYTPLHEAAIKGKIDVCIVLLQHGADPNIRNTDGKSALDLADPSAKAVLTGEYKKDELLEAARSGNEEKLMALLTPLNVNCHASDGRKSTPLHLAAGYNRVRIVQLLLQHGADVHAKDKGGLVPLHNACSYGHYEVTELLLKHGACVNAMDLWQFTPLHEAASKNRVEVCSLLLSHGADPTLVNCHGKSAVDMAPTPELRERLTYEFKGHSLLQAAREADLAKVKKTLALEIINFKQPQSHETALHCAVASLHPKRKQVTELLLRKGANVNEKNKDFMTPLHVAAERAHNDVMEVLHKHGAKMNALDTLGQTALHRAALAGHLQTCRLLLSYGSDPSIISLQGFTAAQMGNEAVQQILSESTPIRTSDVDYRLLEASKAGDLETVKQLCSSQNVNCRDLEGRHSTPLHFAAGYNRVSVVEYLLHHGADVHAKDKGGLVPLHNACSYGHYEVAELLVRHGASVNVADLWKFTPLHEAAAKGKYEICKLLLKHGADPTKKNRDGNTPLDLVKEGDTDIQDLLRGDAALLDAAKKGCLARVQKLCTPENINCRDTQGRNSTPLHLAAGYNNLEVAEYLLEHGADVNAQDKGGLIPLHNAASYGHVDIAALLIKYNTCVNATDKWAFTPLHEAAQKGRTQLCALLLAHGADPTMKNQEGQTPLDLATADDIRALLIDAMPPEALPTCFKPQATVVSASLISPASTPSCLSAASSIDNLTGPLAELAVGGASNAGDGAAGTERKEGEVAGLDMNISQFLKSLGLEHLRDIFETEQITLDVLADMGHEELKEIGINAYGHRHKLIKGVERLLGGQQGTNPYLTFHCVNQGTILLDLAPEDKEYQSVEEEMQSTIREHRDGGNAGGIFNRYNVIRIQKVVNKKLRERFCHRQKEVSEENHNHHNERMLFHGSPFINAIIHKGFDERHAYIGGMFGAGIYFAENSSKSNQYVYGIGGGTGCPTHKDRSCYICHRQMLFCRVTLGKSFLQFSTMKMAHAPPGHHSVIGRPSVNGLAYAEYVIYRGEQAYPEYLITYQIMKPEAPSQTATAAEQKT
The assay is described as follows: Inhibition of tankyrase in WNT3a-stimulated human HEK293 cells by luciferase reporter gene assay. Type of assay: cell-based. Background: A reporter such as luciferase makes a cellular process visible.

In general, IC50 refers to the concentration at which inhibition is half-maximal. The low end stands for greater potency, the high end for weaker potency. Molecule `COc1ccc(C2(CNC(=O)c3ccc(NC(=O)c4ccco4)cc3Cl)CCOCC2)cc1` gave an IC50 of 360 nM.
